These results are taken from patent US11464749B2, “Bismuth-thiol compositions and methods of use” (Microbion Corporation, priority 2018, dated 2022).

The nature of data set [1]: Aerosol testing of BisEDT suspension formulations (aerosol concentration, particle size). Type of data set: physicochemical. Conditions: Lot # ED268-1-11-01; 25 mg/mL formulation. An excerpt:
Objective: The objective of this study was to develop methods for the nose-only inhalation exposures of BisEDT for rodents. The aerosols were generated from suspension formulations of BisEDT in aqueous media (0.5% TWEEN 80® in Sodium Phosphate Buffer, pH 7.4). […] Suspension formulations were created by sonication with neat API with 0.5% TWEEN 80® in Sodium Phosphate Buffer, pH 7.4. This was further refined by adjusting the vehicle to an osmolality of 300 mOsmol/kg. Aerosols were characterized for particle size distribution and aerosol concentration. Aerosol concentration was determined by differential mass and chemical analysis of the aerosol filter samples.
Aerosol Methods: Formulation—Suspension formulations of BisEDT were prepared in 0.5% TWEEN 80® in Sodium Phosphate Buffer, pH 7.4. Suspensions of 2.5, 10, 25, 50, 75 and 100 mg/mL were prepared by sonication with a Covaris sonicator. In later tests, the vehicle was adjusted with sodium chloride to achieve an Osmolality of 300 mOsmol/kg. Suspensions were prepared at 2.5, 50, and 100 mg/mL.
Aerosol concentration was measured at the breathing zone of the exposure system by collection of the aerosol onto 47-mm filters (Whatman GF/A membrane filters). Filter samples were collected at a nominal flowrate of 0.3 L/min. Aerosol mass concentration was determined by differential weight analysis of the filter samples. […]

Data set [2] is described as follows: Rat nose-only inhalation study: whole blood and lung BisEDT. Type of data set: in vivo, F344 rats. Conditions: single inhalation dose 47 μg/kg, 8 hr. The procedure:
Inhalation Exposure: The initial exposure of BisEDT (Bismuth-1,2-ethanedithiol) was formulated as […] at 100 mg/mL in suspension in 0.5% TWEEN 80®, 10 mM sodium phosphate, pH 7.4, in NaCl (adjusted to approximately 300 mOsm). Aerosols were generated with a commercial compressed air jet nebulizer, PAD LC PLUS®, operated with an inlet pressure of 20 psi.
Detailed gross necropsies were performed on all animals (found dead, moribund, or scheduled necropsy) and consisted of a complete external and internal examination including body orifices and cranial, thoracic, and abdominal organs and tissues. All gross findings will be recorded in descriptive terms. […] Lungs collected and weighed.

The next data set relates to P. aeruginosa. As to conditions: P. aeruginosa isolate 103; CLSI QC range shown in parenthesis; cited from earlier work.
Data set [3] can be described thus: Particle size distribution of exposure aerosols (In-Tox Mercer Impactor). Conditions: rat efficacy study exposure atmospheres.
Another data set concerns B. cenocepacia. The experiment in a line: Broth microdilution MIC (Example 10). As to conditions: initial MIC testing.
For a further data set, the system named is B. cepacia. The experiment in a line: Broth microdilution MIC (Example 10). Conditions: initial MIC testing. In general terms: Dilution methods test growth across graded concentrations, often in twofold steps.
Another data set has as its system Candida auris. The experiment in a line: Broth microdilution antifungal susceptibility (Example 13). Conditions: Candidozyma auris. Type of data set: cell-based.
A further data set relates to E. faecium. The experiment in a line: Broth microdilution MIC (Example 11). Conditions: Enterococcus faecium, VRE, VRE vanA Lev^R Cip^R Ery^R.
Another data set has as its system M. abscessus complex. As to the kind of experiment: MIC against CF bacterial strains (Example 5). Conditions: Mycobacteroides abscessus. Type of data set: cell-based, Mycobacterium abscessus. How it is done: A range of CF-isolated strains of Mycobacterium avium and Mycobacterium abscessus were included; which allows for understanding of the activity against non-tubercular Mycobacteria (NTM). Two distinct bismuth-thiol compounds were evaluated, including BisEDT and BisBDT. […] The CF-isolates of greater clinical relevance, including both M abscessus spp. and Burkholderia spp., were both consistently found to be much more susceptible to BisEDT and BisBDT.

Another data set concerns C. tropicalis. The experiment in a line: Broth microdilution MIC, yeast (Example 11). Type of data set: cell-based. Conditions: Candida tropicalis, FLU^R.
The test system of another data set is Candida krusei. As to the kind of experiment: Broth microdilution antifungal susceptibility (Example 13). Type of data set: cell-based. As to conditions: Pichia kudriavzevii.
The test system of the next data set is S. aureus ATCC 29213. As to conditions: control strain ATCC 29213; per CLSI M100-S24 or provided by Microbion; cited from earlier work.

Structures are written as SMILES. ≈ marks a conversion by molar mass, not a printed value. Where “and” joins values, the source holds several entries; their conditions need not be identical. Equal values may be shown once. Read-outs that look alike come from different tables or passages of the source.

For `C1C[S][Bi]([S]CC[S][Bi]2[S]CC[S]2)[S]1` [BisEDT, bismuth-1,2-ethanedithiol], the “BisEDT Aerosol Conc., average of all extracted concentrations incl. outlier filter” value in [1] was determined as 64.4 µg/L. In data set [2], the “Mean BisEDT Conc, whole blood” value is reported as 114 ng/mL. Moreover, the “MIC, CLSI QC range” value with P. aeruginosa was “(0.5-4) μg/mL”. The “MMAD of exposure aerosol” value in data set [3] turned out to be 1.54 μm.
As to `C[C@@H](O)[C@H]1C(=O)N2C(C(=O)O)=C(S[C@@H]3CN[C@H](C(=O)N(C)C)C3)[C@H](C)[C@H]12` [MEM], the MIC in the data set with B. cenocepacia (B. cenocepacia isolate 0548 (CIP-R)) stood at 4 µg/mL (≈ 10.4 µM); in the data set with B. cenocepacia (B. cenocepacia isolate 0813 (CPI-I)), 2 µg/mL (≈ 5.22 µM); against B. cenocepacia (B. cenocepacia isolate 1631), 4 µg/mL (≈ 10.4 µM); in the data set with B. cenocepacia (B. cenocepacia isolate 1783) it was 4 µg/mL (≈ 10.4 µM); in the data set with B. cenocepacia (B. cenocepacia isolate 8555), 4 µg/mL (≈ 10.4 µM); in the data set on B. cepacia (B. cepacia isolate 0546), 4 µg/mL (≈ 10.4 µM). Besides, the MIC amounted to 2 µg/mL (≈ 5.22 µM) against B. cepacia (B. cepacia isolate 0547), 4 µg/mL (≈ 10.4 µM) with B. cepacia (B. cepacia isolate 1793), 4 µg/mL (≈ 10.4 µM) in the data set with B. cepacia (B. cepacia isolate 1794) and 4 µg/mL (≈ 10.4 µM) with B. cepacia (B. cepacia isolate 9040).
For the compound `CC(S)C(C)S.[Bi]` (stereo not shown) [BisBDT, bismuth-2,3-butanedithiol], the MIC came to 1 µg/mL with Candida auris (read-out: MIC0 (complete inhibition), isolate MMX 9862 (Susceptible)); 2 µg/mL with Candida auris (read-out: MIC0 (complete inhibition), isolate MMX 9863 (FLU-R, VORI-R)); 1 µg/mL in the data set with Candida auris (read-out: MIC0 (complete inhibition), isolate MMX 9864 (FLU-R, VORI-R)); 2 µg/mL with Candida auris (read-out: MIC0 (complete inhibition), isolate MMX 9865 (FLU-R, VORI-R)); 2 µg/mL with Candida auris (read-out: MIC0 (complete inhibition), isolate MMX 9866 (FLU-R, VORI-R)); 2 µg/mL in the data set on Candida auris (read-out: MIC0 (complete inhibition), isolate MMX 9867 (FLU-R, VORI-R)). Further, the MIC in the data set with Candida auris (read-out: MIC0 (complete inhibition), isolate MMX 9868 (FLU-R, VORI-R)) came out at 4 µg/mL; with Candida auris (read-out: MIC0 (complete inhibition), isolate MMX 9869 (FLU-R, VORI-R)) it was 4 µg/mL; with Candida auris (read-out: MIC0 (complete inhibition), isolate MMX 9870 (FLU-R, VORI-R)) it was 2 µg/mL; with Candida auris (read-out: MIC0 (complete inhibition), isolate MMX 9871 (Susceptible)), 2 µg/mL; in the data set with Candida auris (read-out: MIC2 (50% inhibition), isolate MMX 9862 (Susceptible)), 0.5 µg/mL; in the data set with Candida auris (read-out: MIC2 (50% inhibition), isolate MMX 9863 (FLU-R, VORI-R)) it was 1 µg/mL. Further, the MIC worked out at 1 µg/mL in the data set on Candida auris (read-out: MIC2 (50% inhibition), isolate MMX 9864 (FLU-R, VORI-R), result after 48 hr incubation (insufficient growth at 24 hr)); 1 µg/mL with Candida auris (read-out: MIC2 (50% inhibition), isolate MMX 9865 (FLU-R, VORI-R)); 1 µg/mL with Candida auris (read-out: MIC2 (50% inhibition), isolate MMX 9866 (FLU-R, VORI-R)); 1 µg/mL in the data set on Candida auris (read-out: MIC2 (50% inhibition), isolate MMX 9867 (FLU-R, VORI-R)); 1 µg/mL with Candida auris (read-out: MIC2 (50% inhibition), isolate MMX 9868 (FLU-R, VORI-R)); 1 µg/mL in the data set with Candida auris (read-out: MIC2 (50% inhibition), isolate MMX 9869 (FLU-R, VORI-R)). For the same compound, the MIC in the data set on Candida auris (read-out: MIC2 (50% inhibition), isolate MMX 9870 (FLU-R, VORI-R)) amounted to 1 µg/mL; in the data set on Candida auris (read-out: MIC2 (50% inhibition), isolate MMX 9871 (Susceptible)), 1 µg/mL; against E. faecium (E. faecium MMX 485), 0.5 µg/mL; in the data set with E. faecium (E. faecium MMX 752) it was 1 µg/mL; in the data set with M. abscessus complex (AMT0068-40, M abscessus/massiliense complex, read-out: MIC) it was 0.06 µg/mL; against M. abscessus complex (AMT 0068-40, MABSC CF isolate, macrolide-S, amikacin-I), 0.125 µg/mL. Further, the MIC in the data set on M. abscessus complex (AMT 0089-5, MABSC CF isolate, macrolide-R, amikacin-R) was 0.125 µg/mL; with M. abscessus complex (AMT0119-7, M abscessus/massiliense complex, read-out: MIC), less than 0.03 µg/mL; in the data set on M. abscessus complex (AMT 0119-7, MABSC CF isolate, macrolide-S, amikacin-I), 0.125 µg/mL; in the data set with M. abscessus complex (AMT0130-8, M abscessus/massiliense complex, read-out: MIC), less than 0.03 µg/mL; in the data set on M. abscessus complex (AMT 0130-8, MABSC CF isolate, macrolide-S, amikacin-I, read-out: MIC), 0.0625 µg/mL; in the data set with M. abscessus complex (AMT 0136-10, MABSC CF isolate, macrolide-R, amikacin-R, read-out: MIC), 0.0625 µg/mL. Moreover, the MIC with M. abscessus complex (AMT153-9, M abscessus/massiliense complex, read-out: MIC) was less than 0.03 µg/mL; in the data set with M. abscessus complex (AMT 0153-9, MABSC CF isolate, macrolide-S, amikacin-I) it was 0.125 µg/mL; against M. abscessus complex (AMT 0157-14, MABSC CF isolate, macrolide-R, amikacin-I) it was 0.125 µg/mL; in the data set on M. abscessus complex (AMT 0166-29, MABSC CF isolate, macrolide-R, amikacin-R) it was 0.125 µg/mL; with M. abscessus complex (AMT0493-2, M abscessus/massiliense complex, Amikacin resistant, read-out: MIC) it was 0.125 µg/mL; against M. abscessus complex (AMT 0493-2, MABSC CF isolate, macrolide-S, amikacin-R), 0.5 µg/mL. In addition, the MIC with M. abscessus complex (ATCC19977, ATCC 19977, M abscessus/massiliense complex, Macrolide resistant (inducible), read-out: MIC) is less than 0.03 µg/mL; in the data set on M. abscessus complex (ATCC19977, ATCC 19977, M. abscessus abscessus, ATCC type strain, read-out: MIC) it was 0.25 µg/mL; against C. tropicalis (24 h, C. tropicalis MMX 7247), 4 µg/mL; in the data set on C. tropicalis (24 h, C. tropicalis MMX 7248), 4 µg/mL; against C. tropicalis (24 h, C. tropicalis MMX 7360), 2 µg/mL; against C. tropicalis (48 h, C. tropicalis MMX 7247) it was 4 µg/mL. For the same compound, the MIC against C. tropicalis (48 h, C. tropicalis MMX 7248) worked out at 8 µg/mL; in the data set on C. tropicalis (48 h, C. tropicalis MMX 7360), 2 µg/mL; with Candida krusei (ATCC6258, read-out: MIC0 (complete inhibition)), 1 µg/mL; with Candida krusei (ATCC14243, read-out: MIC0 (complete inhibition)), 1 µg/mL; in the data set on Candida krusei (ATCC96685, read-out: MIC2 (50% inhibition)) it was 0.25 µg/mL; with Candida krusei (read-out: MIC2 (50% inhibition)), 1 µg/mL. Moreover, the MIC in the data set with Candida krusei (read-out: MIC0 (complete inhibition)) stood at 2 µg/mL. The “Expected MIC: goal (acceptable range)” value with S. aureus ATCC 29213 is 0.25 mcg/mL and 0.25 (0.12-0.5) mcg/mL.
